Data published in ChEMBL document CHEMBL4425114, “Development of Novel Alkoxyisoxazoles as Sigma-1 Receptor Antagonists with Antinociceptive Efficacy” (J Med Chem, 2016).
Activity calls are given as the source filed them. The calls are words filed in the database; no cut-off is given here.

How the values were obtained:
[1] = target: T1, Sigma intracellular receptor 2 (Rattus norvegicus) (UniProt Q5U3Y7); test: Displacement of [3H]DTG from rat brain sigma2 receptor at 10 uM by PDSP assay
T1 sequence (whole entry): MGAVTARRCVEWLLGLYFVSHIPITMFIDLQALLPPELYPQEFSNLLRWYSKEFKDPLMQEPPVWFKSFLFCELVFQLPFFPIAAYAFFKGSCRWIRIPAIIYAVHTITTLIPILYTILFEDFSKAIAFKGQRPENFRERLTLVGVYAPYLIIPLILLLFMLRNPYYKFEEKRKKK

[2] = target: Sigma non-opioid intracellular receptor 1 (Rattus norvegicus, UniProt Q9R0C9); test: Displacement of [3H]-pentazocine from rat brain sigma1 receptor by PDSP assay
[3] = target: T2, Sigma intracellular receptor 2 (Rattus norvegicus, UniProt Q5U3Y7); test: Displacement of [3H]DTG from rat brain sigma2 receptor by PDSP assay
T2 sequence (Q5U3Y7 whole entry): T1 sequence (whole entry)

[4] = target: T3, Sodium-dependent serotonin transporter (Homo sapiens, UniProt P31645); conditions: HEK293, at 10 µM
Target sequence in this assay (P31645 whole entry, looked up): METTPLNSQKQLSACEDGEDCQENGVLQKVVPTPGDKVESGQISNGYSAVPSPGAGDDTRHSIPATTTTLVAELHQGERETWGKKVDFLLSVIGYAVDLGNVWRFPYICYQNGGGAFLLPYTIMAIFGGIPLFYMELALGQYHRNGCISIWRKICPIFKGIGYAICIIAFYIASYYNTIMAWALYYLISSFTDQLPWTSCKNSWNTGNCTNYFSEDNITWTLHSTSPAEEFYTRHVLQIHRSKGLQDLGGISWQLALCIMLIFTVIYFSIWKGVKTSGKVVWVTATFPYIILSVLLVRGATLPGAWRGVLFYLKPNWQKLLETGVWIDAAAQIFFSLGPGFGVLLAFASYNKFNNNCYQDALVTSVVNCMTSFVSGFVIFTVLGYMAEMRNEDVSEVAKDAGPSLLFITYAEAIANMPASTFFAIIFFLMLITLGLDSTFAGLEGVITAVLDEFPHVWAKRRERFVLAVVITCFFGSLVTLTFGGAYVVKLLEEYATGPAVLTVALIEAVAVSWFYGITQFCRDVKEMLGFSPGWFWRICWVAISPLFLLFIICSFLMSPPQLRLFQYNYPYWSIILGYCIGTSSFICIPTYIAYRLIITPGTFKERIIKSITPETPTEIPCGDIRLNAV
Description: Displacement of [3H]citalopram from human SERT expressed in HEK293 cells at 10 uM measured after 30 mins

[5] = target: T4, Sodium-dependent dopamine transporter (Homo sapiens, UniProt Q01959)
Description: Displacement of [3H]-WIN35428 from human DAT expressed in HEK293 cells measured after 30 mins

[6] = target: T4, Sodium-dependent dopamine transporter; test: Displacement of [3H]-WIN35428 from human DAT expressed in HEK293 cells at 10 uM measured after 30 mins; assay type: cell-based
[7] = target: Sodium-dependent noradrenaline transporter (Homo sapiens, UniProt P23975); test: Displacement of [3H]nisoxetine from human NET expressed in HEK293 cells measured after 30 mins; assay type: cell-based
[8] = target: Sigma non-opioid intracellular receptor 1 (Rattus norvegicus) (UniProt Q9R0C9); test: Displacement of [3H]-pentazocine from rat brain sigma1 receptor at 10 uM by PDSP assay
[9] = target: T3, Sodium-dependent serotonin transporter; test: biochemical; assay type: cell-based, HEK293
Target sequence in this assay (P31645 whole entry): as the sequence (P31645 whole entry, looked up) above
Description: Displacement of [3H]citalopram from human SERT expressed in HEK293 cells measured after 30 mins

[10] = Permeability of the compound after 18 hrs by PAMPA assay; assay type: ADME; conditions: read-out: permeability
[11] = target: Sigma non-opioid intracellular receptor 1 (Cavia porcellus) (UniProt Q60492); test: Binding affinity to sigma1 receptor form guinea pig brain membrane in presence of phenytoin […]
[12] = Toxicity in Kun Ming mouse assessed as decrease in rotarod latency at 40 mg/kg, ip measured after 60 to 120 mins by rotarod test relative to vehicle-treated control; assay type: organism-based; conditions: in vivo
[13] = system: Mus musculus; test: Antinociceptive activity in Kun Ming mouse assessed as reduction in paw licking and flinching time at 80 mg/kg, ip administered 15 mins prior to formalin challenge measured up to 45 mins post formalin dosing relative to vehicle-treated control; assay type: functional, organism-based

T4 sequence (Q01959 whole entry): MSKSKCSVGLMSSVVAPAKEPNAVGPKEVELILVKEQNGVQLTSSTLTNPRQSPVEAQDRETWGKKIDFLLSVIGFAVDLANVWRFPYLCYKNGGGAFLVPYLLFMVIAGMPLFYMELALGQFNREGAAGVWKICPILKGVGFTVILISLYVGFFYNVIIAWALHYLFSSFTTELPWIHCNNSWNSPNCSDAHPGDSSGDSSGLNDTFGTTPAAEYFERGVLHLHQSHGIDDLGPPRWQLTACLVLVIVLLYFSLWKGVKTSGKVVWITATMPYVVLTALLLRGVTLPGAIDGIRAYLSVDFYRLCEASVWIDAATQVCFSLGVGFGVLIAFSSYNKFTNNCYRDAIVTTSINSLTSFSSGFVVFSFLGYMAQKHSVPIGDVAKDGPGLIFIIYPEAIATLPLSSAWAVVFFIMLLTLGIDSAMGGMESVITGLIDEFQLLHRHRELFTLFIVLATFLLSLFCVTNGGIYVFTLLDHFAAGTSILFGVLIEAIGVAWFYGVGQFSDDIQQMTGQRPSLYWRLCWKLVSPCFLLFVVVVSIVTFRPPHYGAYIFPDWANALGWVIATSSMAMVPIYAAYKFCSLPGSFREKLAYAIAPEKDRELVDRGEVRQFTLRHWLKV
Sequence of Sigma non-opioid intracellular receptor 1 (Cavia porcellus) (Q60492 whole entry): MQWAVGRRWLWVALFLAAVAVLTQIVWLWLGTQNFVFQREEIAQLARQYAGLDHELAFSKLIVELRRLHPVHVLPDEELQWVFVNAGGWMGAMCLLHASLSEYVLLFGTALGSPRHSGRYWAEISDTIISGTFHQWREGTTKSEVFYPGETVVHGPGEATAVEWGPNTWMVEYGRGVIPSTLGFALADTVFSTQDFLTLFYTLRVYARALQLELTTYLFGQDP
Sequence of Sodium-dependent noradrenaline transporter (P23975 whole entry): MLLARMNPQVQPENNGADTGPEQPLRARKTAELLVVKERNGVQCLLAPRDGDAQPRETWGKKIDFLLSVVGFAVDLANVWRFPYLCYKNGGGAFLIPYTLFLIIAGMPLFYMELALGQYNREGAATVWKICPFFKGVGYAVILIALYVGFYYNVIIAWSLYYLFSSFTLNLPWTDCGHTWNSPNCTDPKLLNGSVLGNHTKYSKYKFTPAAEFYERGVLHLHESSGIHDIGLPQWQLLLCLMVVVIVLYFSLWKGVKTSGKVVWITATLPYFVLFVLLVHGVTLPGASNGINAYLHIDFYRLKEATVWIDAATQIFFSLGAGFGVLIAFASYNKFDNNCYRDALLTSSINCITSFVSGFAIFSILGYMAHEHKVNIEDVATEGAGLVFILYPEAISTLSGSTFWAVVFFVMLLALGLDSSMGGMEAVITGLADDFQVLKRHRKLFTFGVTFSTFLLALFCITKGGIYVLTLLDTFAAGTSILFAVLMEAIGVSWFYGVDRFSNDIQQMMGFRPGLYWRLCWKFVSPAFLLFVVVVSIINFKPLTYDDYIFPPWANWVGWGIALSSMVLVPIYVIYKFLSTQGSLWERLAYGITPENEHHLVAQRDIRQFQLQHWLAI
Sequence of Sigma non-opioid intracellular receptor 1 (Q9R0C9 whole entry): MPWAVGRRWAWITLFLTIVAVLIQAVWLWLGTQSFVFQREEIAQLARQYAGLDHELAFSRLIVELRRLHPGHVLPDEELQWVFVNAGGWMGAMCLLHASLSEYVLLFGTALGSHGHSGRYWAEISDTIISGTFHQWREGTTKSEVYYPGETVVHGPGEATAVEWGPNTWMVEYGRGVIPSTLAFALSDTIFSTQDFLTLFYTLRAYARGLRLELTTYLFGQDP
Sequence of Sigma non-opioid intracellular receptor 1 (Rattus norvegicus) (Q9R0C9 whole entry): as above

Structure (SMILES)	Ki [2] [µM]	Ki [3] [µM]	further results
COc1cccc(OCc2cc(OC[C@@H]3CCCN3)no2)c1	0.0311	> 10	inhibition [1]: < 50%
CN(CCOc1cc(COc2cccc(F)c2)on1)C1CCCCC1	0.0005	0.0245	–
FC(F)(F)c1ccc(OCc2cc(OC[C@@H]3CCCN3)no2)cc1	0.0133	0.0917	–
c1ccc(OCc2cc(OC[C@H]3CCCN3)no2)cc1	0.0374	0.508	–
Brc1cccc(OCc2cc(OC[C@@H]3CCCN3)no2)c1	0.0032	0.0859	–
CN1CCC[C@@H]1COc1cc(COc2ccccc2)on1	0.0231	0.411	–
Clc1ccccc1OCc1cc(OC[C@@H]2CCCN2)no1	0.0027	0.165	inhibition [4]: > 50%; Ki [5]: > 10 µM; inhibition [6]: < 50%; Ki [7]: 2.11 µM; inhibition [8]: > 50%; Ki [9]: 2.95 µM
c1ccc(OCc2cc(OCCN3CCOCC3)no2)cc1	0.403	> 10	inhibition [1]: < 50%
Cl.c1ccc(OCc2cc(N3CCNCC3)no2)cc1	0.0053	0.221	inhibition [4]: < 50%; Ki [5]: 0.497 µM; inhibition [6]: > 50%; Ki [7]: 0.163 µM; inhibition [8]: > 50%; Papp at 18 h [10]: 73.6 nm/s; Ki [9]: > 10 µM
CN(CCOc1cc(COc2ccccc2)on1)C1CCCCC1	0.0003	0.0187	inhibition [4]: < 50%; Ki [5]: > 10 µM; inhibition [6]: < 50%; Ki [7]: > 10 µM; inhibition [8]: > 50%; Ki [9]: > 10 µM
c1ccc(OCc2cc(OCC3CCNCC3)no2)cc1	0.356	0.284	–
c1ccc(OCc2cc(OC[C@@H]3CCCN3)no2)cc1	–	–	Activity [11]: inactive; Papp at 18 h [10]: 20 to 40 nm/s
CN1CCC[C@H]1COc1cc(COc2cccc(Cl)c2)on1	0.0014	0.371	–
O=C(Oc1ccccc1)c1cc(OC[C@@H]2CCCN2)no1	> 10	> 10	inhibition [1]: < 50%; inhibition [8]: < 50%
Clc1cccc(OCc2cc(OC[C@@H]3CCCN3)no2)c1.O=C(O)C(F)(F)F	0.0026	> 10	Activity [11]: inactive; inhibition [1]: < 50%; Papp at 18 h [10]: 20 to 40 nm/s
Cc1cccc(OCc2cc(OC[C@@H]3CCCN3)no2)c1	0.004	0.341	–
CN1CCC[C@H]1COc1cc(COc2ccccc2)on1.Cl	0.0034	0.665	Papp at 18 h [10]: 20 to 40 nm/s
O=C(c1cc(OC[C@@H]2CCCN2)no1)N1CCc2ccccc21	0.0139	> 10	inhibition [1]: < 50%
CN1CCN(c2cc(COc3ccccc3)on2)CC1	0.0639	2.2	–
CCN(C)CCOc1cc(COc2ccccc2)on1	0.0184	0.82	–
CN(CCOc1cc(COc2cccc(F)c2)on1)CC1CC1	0.0009	0.314	–
CC(C)C[C@H](CN)CC(=O)O [PREGABALIN]	–	–	Activity [12]: Toxic
Clc1cccc(OCc2cc(N3CCNCC3)no2)c1	0.0365	0.687	–
Fc1ccc(OCc2cc(OC[C@@H]3CCCN3)no2)cc1	0.0044	0.471	–
c1ccc(SCc2cc(OC[C@@H]3CCCN3)no2)cc1	0.0654	1.03	–

Structure (SMILES)	Ki [2] [µM]	Ki [3] [µM]	further results
CN(CCOc1cc(COc2cccc(Cl)c2)on1)CC1CC1	0.0011	0.123	–
Cl.Fc1cccc(OCc2cc(OC[C@@H]3CCCN3)no2)c1	0.0014	0.277	Activity [11]: inactive; Papp at 18 h [10]: 20 to 40 nm/s
c1ccc2cc(OCc3cc(OC[C@@H]4CCCN4)no3)ccc2c1	0.0366	0.153	–
Cc1cc(OCCN2CCOCC2)nn1-c1ccc2ccccc2c1	–	–	Activity [11]: inactive; Activity [13]: Active; Papp at 18 h [10]: 20 to 40 nm/s
NCCOc1cc(COc2ccccc2)on1	0.0639	> 10	inhibition [1]: < 50%
CN(C)CCOc1cc(COc2ccccc2)on1	> 10	> 10	inhibition [1]: < 50%; inhibition [8]: < 50%
O=C(Nc1ccccc1)OCc1cc(OC[C@@H]2CCCN2)no1	0.299	> 10	inhibition [1]: < 50%
Fc1ccc(C(OCCN2CCN(CCCc3ccccc3)CC2)c2ccc(F)cc2)cc1	–	–	inhibition [6]: > 50%
CN(CCOc1cc(COc2ccccc2)on1)C1CCCC1	0.0005	0.0737	–
CN1CCC[C@H]1COc1cc(COc2cccc(F)c2)on1	0.0007	0.687	–
CN(CCOc1cc(COc2ccccc2)on1)C1CCC1	0.0018	0.307	Activity [11]: inactive
CN1CCC(COc2cc(COc3ccccc3)on2)CC1	0.0964	0.216	–
Brc1ccc(OCc2cc(OC[C@@H]3CCCN3)no2)cc1	0.0183	0.137	–
CN(CCOc1cc(COc2cccc(Cl)c2)on1)C1CCCCC1	0.0005	0.0151	–
O=C(Nc1ccccc1)c1cc(OC[C@@H]2CCCN2)no1	0.13	> 10	inhibition [1]: < 50%
c1ccc(OCc2cc(N3CCCCC3)no2)cc1	> 10	> 10	inhibition [1]: < 50%; inhibition [8]: < 50%
COc1ccc(OCc2cc(OC[C@@H]3CCCN3)no2)cc1	0.21	0.675	–
CNCCOc1cc(COc2ccccc2)on1	0.0808	> 10	inhibition [1]: < 50%
c1ccc(OCc2cc(N3CCOCC3)no2)cc1	> 10	> 10	inhibition [1]: < 50%; inhibition [8]: < 50%
CCNCCOc1cc(COc2ccccc2)on1	0.0037	0.987	–
Clc1ccc(OCc2cc(OC[C@@H]3CCCN3)no2)cc1	0.013	0.139	–
Fc1ccccc1OCc1cc(OC[C@@H]2CCCN2)no1	0.006 to 0.0061	0.396	inhibition [4]: < 50%; Ki [5]: > 10 µM; inhibition [6]: < 50%; Ki [7]: 1.08 µM; inhibition [8]: > 50%; Ki [9]: > 10 µM
NCCCOc1cc(COc2ccccc2)on1	2.31	> 10	inhibition [1]: < 50%
FC(F)(F)c1cccc(OCc2cc(OC[C@@H]3CCCN3)no2)c1	0.0066	0.088	–
